Data published in US7223572B1, “Methylophilus methylotrophus having enhanced dihydrodipicolinate synthase and/or aspartokinase activity for L-amino acid production” (Ajinomoto Co., Inc., priority 1999, dated 2007).

System: AK
Assay: AK activity of cell-free extracts, with and without L-lysine (method of Stadtman)
Assay type: biochemical, Methylophilus methylotrophus
Settings: L-lysine alone
Procedure: Cell-free extracts were prepared from the Methylophilus methylotrophus AS1 strain containing the RSFD80 plasmid (also referred to as “AS1/RSFD80” hereinafter) and the Methylophilus methylotrophus AS1 strain containing the pRS plasmid (also referred to as “AS1/pRS” hereinafter), and AK activity was measured. The cell-free extracts (crude enzyme solutions) were prepared as follows. The AS1/RSFD80 strain and AS1/pRS strain were each inoculated to 121 production medium of the above composition containing 20 mg/L of streptomycin, cultured at 37° C. for 34 hours with shaking, and then calcium carbonate was removed and cells were harvested.
The bacterial cells obtained as described above were washed with 0.2% KCl under a condition of 0° C., suspended in 20 mM potassium phosphate buffer (pH 7) containing 10 mM MgSO4, 0.8 M (NH4)2SO4 and 0.03 M β-mercaptoethanol, and disrupted by sonication (0° C., 200 W, 10 minutes). […]
The measurement of AK activity was performed in accordance with the method of Stadtman (Stadtman, E. R., Cohen, G. N., LeBras, G., and Robichon-Szulmajster, H., J. Biol. Chem., 236, 2033 (1961)). […] The reaction solution was centrifuged, and absorbance of the supernatant was measured at 540 nm. […] When the enzymatic activity was measured, L-lysine was added to the enzymatic reaction solution at various concentrations to examine degree of inhibition by L-lysine.

Structure (SMILES): NCCCC[C@H](N)C(=O)O [L-lysine]
- inhibition of AK originally retained by the AS1 strain: not inhibited
